Test results: patent US10035806B2, “Derivatized corroles and metallocorroles and their use as imaging and therapeutic agents” (CALIFORNIA INSTITUTE OF TECHNOLOGY, priority 2015, dated 2018)
Marks after values point to notes of the source that are not given here.

Legend:
Type in all cases: cell-based, human
[1] = system: DU-145, SK-MEL-28, MDA-MB-231, OVCAR-3; assay: MTS assay, all four cell lines taken together; conditions: Table 1 comparison, 72 h
Description: Reagents were obtained from the indicated suppliers: HBSS without phenol red and trypsin-EDTA (0.25%), Invitrogen/Gibco; PBS, Mediatech; 4′,6-diamidino-2-phenylindole dihydrochloride (DAPI) and DMSO, Sigma-Aldrich; paraformaldehyde, Electron Microscopy Sciences; WGA, Alexa Fluor 488 conjugate, Invitrogen/Molecular Probes; and ProLong Gold Antifade Mountant with DAPI, Life Technologies. Human Cancer Cell Lines. Four cell lines from the NCI60 cell panel (Shoemaker RH (2006) The NCI60 human tumour cell line anticancer drug screen. Nat Rev Cancer 6(10):813-823) representing four distinct tumor types were used in this study: DU-145, prostate; MDA-MB-231, breast; SK-MEL-28, melanoma; and OVCAR-3, ovarian. […]
At the time of drug treatment, stock solutions of 1-4 were diluted to 10-fold the desired final test concentrations with RPMI medium 1640. […] Following 72 h of exposure at 37° C., cell viability was determined using the MTS assay (CellTiter 96 Aqueous One Cell Proliferation Assay; Promega) according to the manufacturer's instructions. Absorbances were measured using a microplate reader (Synergy 4; Biotek Instruments) at 490 nm. […] Spectrophotometric data were analyzed by sigmoid dose-response, nonlinear regression analysis; the IC50, Emax values, and associated SE were calculated using GraphPad Prism 6 (GraphPad Software). […]

LOX IMVI = assay: NCI60 anticancer drug screen; conditions: LOX IMVI (Melanoma), 10 μM, 48 h; lethality rather than inhibition
MDA-MB-231 = assay: MTS assay (cytotoxicity); conditions: MDA-MB-231 (breast), 72 h exposure in the dark, mean of three experiments
Description: Reagents were obtained from the indicated suppliers: HBSS without phenol red and trypsin-EDTA (0.25%), Invitrogen/Gibco; PBS, Mediatech; 4′,6-diamidino-2-phenylindole dihydrochloride (DAPI) and DMSO, Sigma-Aldrich; paraformaldehyde, Electron Microscopy Sciences; WGA, Alexa Fluor 488 conjugate, Invitrogen/Molecular Probes; and ProLong Gold Antifade Mountant with DAPI, Life Technologies. Human Cancer Cell Lines. Four cell lines from the NCI60 cell panel (Shoemaker RH (2006) The NCI60 human tumour cell line anticancer drug screen. Nat Rev Cancer 6(10):813-823) representing four distinct tumor types were used in this study: DU-145, prostate; MDA-MB-231, breast; SK-MEL-28, melanoma; and OVCAR-3, ovarian. Cells were grown in RPMI 1640 cell culture medium (Mediatech) containing 2 mM L-glutamine, supplemented with 10% FBS (Omega Scientific), and maintained at 37° C. under 5% CO2 in a humidified incubator.
At the time of drug treatment, stock solutions of 1-4 were diluted to 10-fold the desired final test concentrations with RPMI medium 1640. Aliquots of […] of these diluted solutions were added to the appropriate microtiter wells containing 90 μL of medium, resulting in the required final drug concentrations (eight concentrations per compound, ranging from 0.3 to 600 μM). The final concentration of DMSO in test culture was <1%. […] Following 72 h of exposure at 37° C., cell viability was determined using the MTS assay (CellTiter 96 Aqueous One Cell Proliferation Assay; Promega) according to the manufacturer's instructions. Absorbances were measured using a microplate reader (Synergy 4; Biotek Instruments) at 490 nm. Experiments were performed in triplicate and each dose-response curve represents the mean of three or more independent experiments. Spectrophotometric data were analyzed by sigmoid dose-response, nonlinear regression analysis; the IC50, Emax values, and associated SE were calculated using GraphPad Prism 6 (GraphPad Software).
The effects of bis-sulfonate, carboxylate, and aminocaproate ring substituents on gallium corrole cytotoxicities were examined using four human cancer cell lines, representing tumors of different origin selected based on previously described sensitivities.

O=C(O)CCCCCNc1c(F)c(F)c(C2=C3C=CC4=[N+]3[Ga-]35[n]6c2ccc6C(c2c(F)c(F)c(F)c(F)c2F)=c2ccc([n]23)=C(c2c(F)c(F)c(F)c(F)c2F)c2ccc4[n]25)c(F)c1F (stereo not drawn) [Complex 3]
IC50 lower than Complex 2 [1]: 10 fold | % lethality (LOX IMVI): 9.7** % | IC50 (MDA-MB-231): 13.7 µM
